# Results reported in patent US9023844B2, “Heterocyclylpyri (mi) dinylpyrazole as fungicidals” (Bayer Intellectual Property GmbH, priority 2011, dated 2015).
# Read-outs that look alike come from different tables or passages of the source.
# Assays:
# [1] = tested on: DON/Acetyl-DON production by Fusarium graminearum; test: microbe, parasite or virus in culture; assay type: cell-based; settings: at 50 μM; for inhibition at 50 µM: Fusarium graminearum, read-out: Inhibition of DON/AcDON in %
# [2] = Determination of log P values by HPLC on a reverse phase column (C18), EEC-Directive 79/831 Annex V.A8 (Methods A, B, C); assay type: physicochemical; settings: for chromatographic logP: reverse phase C18 HPLC column
# Method in brief: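 Three C18 chromatographic methods following EEC-Directive 79/831 Annex V.A8 gave the logP values. Method C (UPLC, 2.1 mm column) ran at 40 °C and 0.8 mL/min with a 3.25 min 10–95% acetonitrile gradient. Methods A and B both ran at 55 °C and 2.0 mL/min, with gradients of 10–95% in 4.25 min and 5–95% in 1.70 min.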
# Fusarium graminearum [3] = test: microbe, parasite or virus in culture; assay type: cell-based; settings: for Growth inhibition of Fusarium graminearum in %: at 50 μM; for inhibition at 50 µM: Fusarium graminearum, read-out: Growth inhibition of Fusarium graminearum in %
# Pyricularia oryzae = assay type: in vivo
# Sphaerotheca fuliginea = test: Example A: Sphaerotheca test (cucumber) / preventive; assay type: in vivo
# Pyrenophora teres = test: Example D: Pyrenophora test (barley) / preventive; assay type: in vivo
# Leptosphaeria nodorum = test: Example C: Leptosphaeria test (wheat) / preventive; assay type: in vivo
# Uromyces appendiculatus = test: Example B: Uromyces test (beans) / preventive; assay type: in vivo; settings: in vivo
# Phytophthora infestans = assay type: in vivo
# Plasmopara viticola = test: Example H: Plasmopara test (grapevines) / preventive; assay type: in vivo; settings: in vivo
# Septoria tritici = test: Example J: Septoria tritici test (wheat) / preventive; assay type: in vivo; settings: in vivo
# Puccinia recondita = test: Example E: Puccinia test (wheat) / preventive; assay type: in vivo; settings: in vivo
# [4] = tested on: Fusarium nivale (var. majus); test: Example K: Fusarium nivale (var. majus) test (wheat) / preventive; assay type: in vivo; settings: 500 ppm of active ingredient, preventive spray, evaluated 5 days after inoculation
# Procedure: After the spray coating has been dried, the plants are slightly injured by using a sandblast and afterwards they are sprayed with a conidia suspension of Fusarium nivale (var. majus).
# The test is evaluated 5 days after the inoculation.
# Fusarium graminearum [5] = assay type: in vivo; settings: in vivo
# Venturia inaequalis = test: Example I: Venturia test (apples) / preventive; settings: 100 ppm of active ingredient, preventive spray, evaluated 10 days after inoculation
# Procedure: After the spray coating has dried on, the plants are inoculated with an aqueous conidia suspension of the causal agent of apple scab (Venturia inaequalis) and then remain for 1 day in an incubation cabinet at approximately 20° C. and a relative atmospheric humidity of 100%.
# The plants are then placed in a greenhouse at approximately 21° C. and a relative atmospheric humidity of approximately 90%.
# The test is evaluated 10 days after the inoculation.
# [6] = Method B (HPLC, reverse phase C18)
# [7] = pH 2.7, values in the synthesis examples, HPLC, reverse phase C18, read-out: log P (pH 2.7)
# [8] = 500 ppm of active ingredient, rice, preventive spray, evaluated 7 days after inoculation
# [9] = 500 ppm of active ingredient, cucumber, preventive spray, evaluated 7 days after inoculation
# [10] = 500 ppm of active ingredient, barley, preventive spray, evaluated 7-9 days after inoculation
# [11] = 100 ppm of active ingredient, tomatoes, preventive spray, evaluated 3 days after inoculation
# [12] = Method C (HPLC, reverse phase C18)
Structure (SMILES),Inhibition of DON/AcDON in % [1] [%],"LogP [2, 6]",Growth inhibition of Fusarium graminearum in % (Fusarium graminearum [3]) [%],efficacy (Pyricularia oryzae; in vivo) [%],efficacy (Sphaerotheca fuliginea; in vivo) [%],efficacy (Pyrenophora teres; in vivo) [%],efficacy (Leptosphaeria nodorum; in vivo) [%],efficacy (Uromyces appendiculatus) [%],efficacy (Septoria tritici) [%],efficacy (Puccinia recondita) [%],efficacy [4] [%],efficacy (Fusarium graminearum [5]) [%],also measured
CC(=O)Nc1cc(-c2c(-c3ccc(F)cc3)nn3c2OCC3)ccn1 [Example 1],98,1.19,90,70,75,95,88,–,–,–,–,–,–
CC(=O)Nc1cc(-c2c(-c3ccc(F)cc3)nn3c2OCCC3)ccn1 [Example 2],100,1.22,57,90,100,100,88,74,–,–,–,–,efficacy (Phytophthora infestans; in vivo): 92%
"O=C(Nc1cc(-c2c(-c3ccc(F)cc3)nn3c2OCC3)ccn1)C1CC1 [Example 3, N-{4-[6-(4-fluorophenyl)-2,3-dihydropyrazolo[5,1-b][1,3]oxazol-7-yl]pyridin-2-yl}cyclopropanecarboxamide]",–,–,–,–,–,–,–,–,–,–,–,–,"inhibition at 50 µM [1]: 98%; chromatographic logP ([2]; Method B (HPLC, reverse phase C18), read-out: LogP): 1.48; chromatographic logP [2, 7]: 1.48; inhibition at 50 µM (Fusarium graminearum [3]): 57%; efficacy (Pyricularia oryzae; [8]): 95%; efficacy (Sphaerotheca fuliginea; [9]): 93%; efficacy (Pyrenophora teres; [10]): 100%; efficacy (Leptosphaeria nodorum; 500 ppm of active ingredient, wheat, preventive spray, evaluated 7-9 days after inoculation): 88%; efficacy (Phytophthora infestans; [11]): 92%"
CC(C)CC(=O)Nc1cc(-c2c(-c3ccccc3)nn3c2OCCC3)ccn1 [Example 11],–,1.66,–,94,100,100,100,94,70,100,100,100,efficacy (Plasmopara viticola): 86%; efficacy (Venturia inaequalis): 100%
C[C@H](O)C(=O)Nc1cc(-c2c(-c3ccccc3)nn3c2OCCC3)ccn1 [Example 12],–,1.2,–,100,83,100,80,94,100,100,93,86,–
O=C(CC1CC1)Nc1cc(-c2c(-c3ccccc3)nn3c2OCCC3)ccn1 [Example 13],–,1.54,–,100,70,95,–,92,100,95,–,71,–
O=C(Nc1cc(-c2c(-c3ccccc3)nn3c2OCCC3)ccn1)C1CCOCC1 [Example 14],100,1.22,95,94,100,95,95,94,100,100,100,86,–
CCC(C)C(=O)Nc1cc(-c2c(-c3ccc(F)cc3)nn3c2OCCC3)ccn1 (centres unmarked) [Example 24],94,1.82,91,94,98,95,95,94,100,100,100,90,–
O=C(CC1CC1)Nc1cc(-c2c(-c3ccc(F)cc3)nn3c2OCCC3)ccn1 [Example 27],–,1.69,–,100,95,95,90,–,100,100,–,86,–
O=C(CC(F)(F)F)Nc1cc(-c2c(-c3ccc(F)cc3)nn3c2OCCC3)ccn1 [Example 31],–,2.13,–,94,88,95,–,92,100,100,100,86,–
CC(C)(C)CC(=O)Nc1cc(-c2c(-c3ccc(F)cc3)nn3c2OCCC3)ccn1 [Example 34],–,2.04,–,94,95,100,90,94,88,100,75,86,–
O=C(Nc1cc(-c2c(-c3ccc(F)cc3F)nn3c2OCCC3)ccn1)C1CC1 [Example 36],–,1.42,–,94,100,95,90,92,88,100,88,100,–
CCC(C)C(=O)Nc1cc(-c2c(-c3ccc(F)cc3F)nn3c2OCCC3)ccn1 (centres unmarked) [Example 39],99,1.85,89,94,98,95,–,94,–,100,–,–,–
CC(C)CC(=O)Nc1cc(-c2c(-c3ccc(F)cc3F)nn3c2OCCC3)ccn1 [Example 40],99,1.88,85,94,98,95,–,94,–,100,–,–,–
O=C(Nc1cc(-c2c(-c3ccc(F)cc3F)nn3c2OCCC3)ccn1)C1CCOCC1 [Example 43],100,1.39,89,94,100,95,70,92,88,100,88,100,–
CSCC(=O)Nc1cc(-c2c(-c3ccc(F)cc3F)nn3c2OCCC3)ccn1 [Example 45],100,1.75,78,94,95,90,–,92,–,90,–,–,–
O=C(CC(F)(F)F)Nc1cc(-c2c(-c3ccc(F)cc3F)nn3c2OCCC3)ccn1 [Example 46],–,2.13,–,94,–,90,–,94,88,100,–,86,–
"CC(=O)Nc1cc(-c2c(-c3ccccc3)nn3c2NCCC3)ccn1 [Example 55, N-[4-(2-phenyl-4,5,6,7-tetrahydropyrazolo[1,5-a]pyrimidin-3-yl)pyridin-2-yl]acetamide]",–,–,–,–,–,–,–,–,–,–,–,–,"inhibition at 50 µM [1]: 100%; chromatographic logP ([2]; Method C (HPLC, reverse phase C18), read-out: LogP): 1.13; chromatographic logP [2, 7]: 1.13; inhibition at 50 µM (Fusarium graminearum [3]): 100%; efficacy (Pyricularia oryzae; [8]): 70%; efficacy (Sphaerotheca fuliginea; [9]): 88%; efficacy (Pyrenophora teres; [10]): 90%; efficacy (Phytophthora infestans; [11]): 91%; efficacy (Venturia inaequalis): 93%"
CC(C)C(=O)Nc1cc(-c2c(-c3ccc(F)cc3)nn3c2OC[Si](C)(C)C3)ccn1 [Example 76],–,–,–,90,95,95,75,94,86,95,100,86,"efficacy (Plasmopara viticola): 100%; LogP [2, 12]: 2.14; efficacy (Venturia inaequalis): 100%"
O=C(C1CC1)N(C(=O)C1CC1)c1cc(-c2c(-c3ccc(F)cc3)nn3cccnc23)ccn1 [Example 84],–,–,–,90,88,90,–,–,88,–,100,83,"LogP [2, 12]: 2.94"
CC(C)C(=O)Nc1cc(-c2c(-c3ccsc3)nn3c2OC[Si](C)(C)C3)ccn1 [Example 101],100,–,93,80,–,100,80,75,–,–,–,–,"LogP [2, 12]: 2.11"
